Test results taken from US8828993B2, “Psychotropic agents having glutamate NMDA activity” (Ramot At Tel-Aviv University Ltd., priority 2006, dated 2014).

What was measured:
mice [1] = assay: Elevated plus maze; type: in vivo; details: male Balb/c mice, oral, diazepam 1 mg/kg
From the text: The elevated plus maze is a widely used method to test anxiety in rodents (Pellow, et al., Pharmacol. Biochem. Behav., 24, 525-529 (1986)). The apparatus was made of wood and painted black, with two opposing open arms and two opposite enclosed arms of the same size. The arms were attached to a central square shaped in a plus sign. The whole apparatus was placed 50 cm above the floor. Anxious animals refrain from entering the open arm and prefer the closed arm.
In a typical experiment, Balb/c male mice were administered orally with 10 and 20 mg/kg of Compound 1 or Compound 6 and with a vehicle or with diazepam (1 mg/kg) administered per os (p.o.) 90 minutes before they were placed in the center of the maze. The frequency to the open aims, the time spent in the different arms, the velocity and number of rearings of the animals in each zone were recorded (Noldus).
Male Balb/c mice were used. Animals were transferred to the behavior room 24 hr before the experiment. Compound 1 or diazepam were administered orally 90 minutes before testing. Each treatment group included 5 animals.
Male Balb/c mice were used. Animals were transferred to the behavior room 24 hr before the experiment. Compound 6 (3, 9, or 27 mg/kg) or vehicle were administered orally 90 minutes before testing. Each treatment group included 5 animals.

mice [2] = assay: Forced swim test (FST); type: in vivo; details: male ICR mice, 20 mg/kg oral
From the text: This is one of the most widely used tools for screening antidepressant activity pre-clinically in acute treatment. The test was first described by Porsolt et al., (Behavioral despair in mice: a primary screening test for antidepressants. Arch. Int. Pharmacodyn. Ther. 229, pp. 327-336, 1977). The FST test is based on the observation that rats and mice develop an immobile posture when placed in an inescapable cylinder of water. This behavior is considered a behavioral despair as opposed to active form of coping with stressful conditions. The FST test is considered a good screening tool with good reliability and predictive validity.
Three parameters were defined in the evaluation of FST:
1. Immobility—defined in the traditional Porsolt test as when no additional activity is observed other than that required to keep the animal's head above water;
2. Swimming behavior—being the movement (usually horizontal) throughout the chamber that also includes crossing into another quadrant;
3. Climbing behavior—being defined as the upward-directed movements (vertical) of the forepaws along the side of the swim chamber.
The test in mice was conducted acutely (60-90 minutes post oral drug administration) and animals were dropped to the cylinder for 6 minutes and scoring was performed in the last 4 minutes after 2 minutes of adaptation.
Round glass cylinders, 18 cm in diameter and 20 cm deep were used. Water temperature was 24-28° C. Four parameters were taken: immobility, velocity, distance and strong mobility. The immobility in the animals was defined by activity lower than 10% movement of the center of gravity of the animal. Swimming was defined by the distance and the velocity of the animal, and climbing was related to strong mobility (movement of center of gravidance more than 30%).
Males Balb/c mice (Harlan Israel) were used. Animals were administered orally with Compound 1 (10 or 20 mg/kg) or with a vehicle.
Males ICR mice were used.

In the case of CN1C(=O)CN=C(c2ccccc2)c2cc(Cl)ccc21 [diazepam, reference compound], the “number of rearings in the center” value (mice [1]) is reported as “significantly increased”, the “number of rearings in the open arm” value (mice [1]) is reported as “increased number of rearings” and the velocity (mice [1]) is reported as “higher”.

Cc1cc2c(s1)Nc1ccccc1N=C2N1CCN(C)CC1 [olanzapine, reference compound] was tested, and the distance moved (mice [2]) was “significantly decreased”, the immobility (mice [2]) was “increased” and the “strong mobility (climbing)” value (mice [2]) was “significantly decreased”. The velocity (mice [2]) was “significantly decreased”.
